Measurements as given in patent publication US9682083B2, “Pyrrolo[2,3-D]pyrimidine derivatives, process for their preparation and their use as kinase inhibitors” (NERVIANO MEDICAL SCIENCES S.R.L., priority 2013, dated 2017).

Columns and labels:
Format in all cases: cell-based
A2780 ovarian carcinoma = test: In vitro cell proliferation assay (CellTiterGlo), A2780 control line; details: Homo sapiens, antiproliferative activity, 72 hours exposure, non RET-dependent control cell line
Protocol: (§1) In Vitro Cell Proliferation Assay
(§2) To evaluate the antiproliferative activity of a compound of formula (I) the following human cell lines were used: A2780 ovarian carcinoma; TT and MZ-CRC-1 medullary thyroid carcinoma, harboring a mutated RET-C634W and RET-M918T receptor respectively; LC-2/ad human lung adenocarcinoma, harboring the CCDC6-RET fusion protein. Exponentially growing cells were seeded and incubated at 37° C. in a humidified 5% CO2 atmosphere using appropriate medium supplemented with 10% Fetal Bovine Serum. 24 hours following cell plating, scalar doses of the compounds dissolved in 0.1% DMSO were added to the medium and cells were exposed to drugs for either 72 hours (A2780) or 144 hours (TT, MZ-CRC-1 and LC-2/ad), according to their different proliferation rate. At the end of treatment, cell proliferation was determined by an intracellular ATP monitoring system (CellTiterGlo—Promega), following manufacturer's instructions, and using an Envision instrument (PerkinElmer) as reader. Data obtained from compound versus vehicle treated cells were compared using Assay Explorer (Symyx Technologies Inc) software. IC50 values were calculated using sigmoidal interpolation curve fitting.
(§3) In the following Table A the antiproliferative activity of representative compounds of formula (I) on two medullary thyroid carcinoma cell lines expressing the aforementioned mutated forms of RET (TT and MZ-CRC-1) and on one lung adenocarcinoma cell line harboring the aforementioned fusion form of RET (LC-2/ad) is reported. As control, the antiproliferative activity of the same compounds on an unrelated non RET-dependent cell line (A2780) is reported. All these compounds show remarkable activity on RET-driven cellular models with respect to the unrelated ones.

[1] = tested on: TT medullary thyroid carcinoma, harboring a mutated RET-C634W receptor; test: In vitro cell proliferation assay (CellTiterGlo), TT; details: Homo sapiens, antiproliferative activity, 144 h exposure
Protocol: as §1, §2, §3

[2] = tested on: LC-2/ad human lung adenocarcinoma, harboring the CCDC6-RET fusion protein; test: In vitro cell proliferation assay (CellTiterGlo), LC-2/ad; details: antiproliferative activity, 144 h exposure
Protocol: as §1, §2, §3

[3] = tested on: MZ-CRC-1 medullary thyroid carcinoma, harboring a mutated RET-M918T receptor; test: In vitro cell proliferation assay (CellTiterGlo), MZ-CRC-1; details: Homo sapiens, antiproliferative activity, 144 h exposure
Protocol: as §1, §2, §3

Row | IC50 (A2780 ovarian carcinoma) [nM] | IC50 [1] [µM] | IC50 [2] [µM] | IC50 [3] [µM] | Compound
1 | 1730 | 0.053 | 0.058 | 0.166 | Nc1ncnc2c1c(C#Cc1cccc(C(=O)NC3CC3)c1)cn2CC(F)(F)F [cmpd 36, 3-{[4-amino-7-(2,2,2-trifluoroethyl)-7H-pyrrolo[2,3-d]pyrimidin-5-yl]ethynyl}-N-cyclopropylbenzamide]
2 | 3910 | 0.1 | 0.107 | 0.201 | Cc1ccc(C(=O)NC2CC2)cc1C#Cc1cn(CC(F)(F)F)c2ncnc(N)c12 [cmpd 52, 3-{[4-amino-7-(2,2,2-trifluoroethyl)-7H-pyrrolo[2,3-d]pyrimidin-5-yl]ethynyl}-N-cyclopropyl-4-methylbenzamide]
